Laboratory results from patent US7214669B2, “Tetracycline derivatives and methods of use thereof” (Tetragenex Pharmaceuticals, Inc., priority 2001, dated 2007).
Values joined by “and” are separate entries in the source; they are usually repeats but may differ in a detail not shown here. Identical values can stand only once.

Key:
MAT LyLu tumor = assay: Dunning MAT LyLu tumor model, survival; format: in vivo, Copenhagen rats; settings: for Surviving Number: 10/group, dosed by gavage
Description: (§2) Fresh dosing solutions containing 10 mg/ml of each test article in 2% carboxymethylcellulose were prepared daily and used in the testing.
(§3) Three groups of animals (10/group) were dosed by gavage with either vehicle, or one of the two analogs daily for three weeks, and then three times per week until death or sacrifice. Dosing was begun seven days prior to implantation of the MAT LyLu tumor cells by tail vein injection. Approximately 0.1 ml of tumor cell suspension was injected into one of the lateral tail veins. The dose to be chosen was based on two factors: (1) efficacy and (2) morbidity associated with the analog, if any.

[1] = Dunning MAT LyLu tumor model, weekly body weight; format: in vivo; settings: compared to the control group
Description: as §2, §3

Human recombinant MMP1 = target: T1, Human recombinant MMP1 (Homo sapiens, UniProt P03956); assay: MMP1 (Collagenase-1) inhibition, 14C collagen release; format: biochemical; settings: 35° C., 5 hours; read-out: MMP-1 inhibitory activity, IC50
T1 sequence (P03956 100-469): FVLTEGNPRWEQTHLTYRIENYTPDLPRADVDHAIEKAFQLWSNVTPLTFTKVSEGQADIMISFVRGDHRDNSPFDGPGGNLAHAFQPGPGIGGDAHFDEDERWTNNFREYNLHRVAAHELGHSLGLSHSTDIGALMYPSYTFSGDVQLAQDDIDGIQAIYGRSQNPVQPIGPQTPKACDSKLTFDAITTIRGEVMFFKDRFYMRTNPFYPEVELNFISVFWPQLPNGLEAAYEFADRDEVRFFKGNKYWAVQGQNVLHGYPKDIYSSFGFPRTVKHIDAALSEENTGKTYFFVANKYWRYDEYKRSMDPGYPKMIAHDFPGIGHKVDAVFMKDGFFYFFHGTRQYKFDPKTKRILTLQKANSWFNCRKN

MMP2 (Gelatinase A) = target: T2, MMP2 (Gelatinase A) (Homo sapiens, UniProt P08253); assay: MMP2 (Gelatinase A) inhibition, 14C gelatin release; format: biochemical; settings: 37° C., 16 hours; read-out: MMP-2 inhibitory activity, IC50
T2 sequence (P08253 110-660): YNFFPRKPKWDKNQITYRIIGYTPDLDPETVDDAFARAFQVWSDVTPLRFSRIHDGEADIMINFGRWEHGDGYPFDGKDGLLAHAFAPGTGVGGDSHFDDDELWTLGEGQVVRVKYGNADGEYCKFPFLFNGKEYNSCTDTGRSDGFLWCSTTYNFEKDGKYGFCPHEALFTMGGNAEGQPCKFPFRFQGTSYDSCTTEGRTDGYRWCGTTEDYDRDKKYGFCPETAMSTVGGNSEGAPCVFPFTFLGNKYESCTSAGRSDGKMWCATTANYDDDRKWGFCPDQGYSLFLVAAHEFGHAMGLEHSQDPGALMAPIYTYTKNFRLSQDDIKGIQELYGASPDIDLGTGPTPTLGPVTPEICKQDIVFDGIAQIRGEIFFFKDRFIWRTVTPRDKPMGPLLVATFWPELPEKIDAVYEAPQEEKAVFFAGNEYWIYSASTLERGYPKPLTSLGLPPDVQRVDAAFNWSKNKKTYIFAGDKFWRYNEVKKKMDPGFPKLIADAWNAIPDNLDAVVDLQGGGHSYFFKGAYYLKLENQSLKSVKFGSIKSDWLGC

Human recombinant MMP3 = Human recombinant MMP3 (Homo sapiens, UniProt P08254); assay: MMP3 (Stromelysin 1) inhibition, 14C casein release; format: biochemical; settings: 37° C., 16 hours; read-out: MMP-3 inhibitory activity, IC50
Description: Protocol for Measuring MMP3 (Stromelysin 1) Inhibition
• 100 μg ^14C casein (7000 dpm) • 50 mM Tris HCl, pH 7.9 • 15 mM CaCl2, 0.02% azide • Human recombinant MMP3, 0.25–1.0 nM • ±tetracycline (up to 1 mM) in a total volume of 250 μl.
Incubations were at 37° C. for 16 hours. The reaction was stopped by the addition of 500 μl cold 18% TCA and standing on ice for 15 minutes. TCA precipitates were removed by centrifugation at 10,000 g for 10 minutes at 4° C. and 200 μl supernatant was taken for scintillation counting. Only data derived from within the linear part of the assay (10–60% lysis) were utilized. The percentage inhibition of MMP3 by each concentration of the candidate tetracycline was plotted to derive the IC50 value, using linear regression analysis.

Human recombinant MMP7 = target: T3, Human recombinant MMP7 (Homo sapiens, UniProt P09237); assay: MMP7 (Matrilysin) inhibition, 14C casein release; format: biochemical; settings: 37° C., 16 hours; read-out: MMP-7 inhibitory activity, IC50
T3 sequence (P09237 95-267): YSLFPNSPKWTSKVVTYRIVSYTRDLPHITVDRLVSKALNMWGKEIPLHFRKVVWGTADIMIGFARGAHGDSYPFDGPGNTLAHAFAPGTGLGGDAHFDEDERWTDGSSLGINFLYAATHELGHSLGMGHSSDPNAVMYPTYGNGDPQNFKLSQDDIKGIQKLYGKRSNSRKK
Description: MMP7 activity was determined by the release of trichloracetic acid, TCA, soluble fragments from ^14C acetylated β casein (Sigma) as described in Methods in Enzymology 248, 451 (1995).
• 100 μg ^14C casein (7000 dpm) • 50 mM Tris HCl, pH 7.9 • 15 mM CaCl2, 0.02% azide • Human recombinant MMP7, 1.5 nM • ±tetracycline (up to 1 mM) in a total volume of 250 μl.
Incubations were at 37° C. for 16 hours. The incubation was stopped by the addition of 500 μl cold 18% TCA and standing on ice for 15 minutes. TCA precipitates were removed by centrifugation at 10,000 g for 10 minutes at 4° C., and 200 μl supernatant was taken for scintillation counting. Only data derived from within the linear part of the assay (10–60% lysis) were utilized. The percentage inhibition of MMP7 by each concentration of the candidate tetracycline were plotted to derive the IC50 value.

Human recombinant MMP9 = Human recombinant MMP9 (Homo sapiens, UniProt P14780); assay: MMP9 (Gelatinase B) inhibition, 14C gelatin release; format: biochemical; settings: 37° C., 16 hours; read-out: MMP-9 inhibitory activity, IC50
Human recombinant MMP14 = Human recombinant MMP14 (Homo sapiens, UniProt P50281); assay: MMP14 (MTI-MMP) inhibition, 14C collagen release; format: biochemical; settings: 35° C., 15 hours; read-out: MMP-14 inhibitory activity, IC50
Description: Protocol for Measuring MMP14 (MTI-MMP) Inhibition by Tetracycline Derivatives
MMP14 activity was determined by the release of soluble ^14C labelled collagen fragments from ^14C acetylated rat skin type I collagen (Methods in Enzymology 80 711, 1981).
• 100 μg ^14C labelled collagen (5–6000 dpm) • 50 mM Tris HCL pH 7.9 • 15 mM CaCl2 0.02% azide • Human recombinant MMP14 50–100 nM • ±Tetracycline (up to 1 mM) in a total volume of 300 μl.
Incubations were at 35° C. for 15 hours. Uncleaved collagen fibrils (which form within the first 10 minutes) were removed by centrifugation at 10,000 g 4° C. 10 minutes 200 μl supernatant were counted in Packard Opti Phase Supermix scintillation fluid using a scintillation counter. Only data derived from within the linear part of the assay (10–70% lysis of the collagen) were utilized. Based on percentage inhibition of the activity of MMP1 alone by a range of concentrations of each sample, the IC50 value for each tetracycline was calculated.

[2] = system: Ark human myeloma cancer cells; assay: Membrane Invasion Culture System (MICS) chemo-invasion assay; format: cell-based; settings: 1 ug/mL; 24 hours; + = increased invasiveness
In short: (§1)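 Fifty thousand cells were seeded above a 35 μm laminin/collagen IV/gelatin barrier on a 10 μm-pore filter, with serum-free RPMI plus 50% fibroblast-conditioned medium below as chemoattractant. Compound at 1, 10 or 25 μg/ml, or DMSO vehicle, was present for 24 h. Invaded cells were collected, Wright-stained and counted over 5 fields.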

[3] = system: Arp-1 human myeloma cancer cells; assay: as above; format: cell-based; settings: 24 hours, + = increased invasiveness
In short: as §1

[4] = system: C8161 human melanoma cells; assay: as above; format: cell-based; settings: 25 ug/mL; 24 hours; + = increased invasiveness
In short: as §1

[5] = system: MDA-MB-231 human breast cancer cells; assay: as above; format: cell-based; settings: 10 ug/mL; 24 hours; + = increased invasiveness
In short: as §1

[6] = system: PC-3 ML human prostate cancer cells; assay: as above; format: cell-based; settings: 10 ug/mL; 24 hours; + = increased invasiveness
In short: as §1

[7] = system: RPMI-8226 human myeloma cancer cells; assay: as above; format: cell-based; settings: 24 hours, + = increased invasiveness
In short: as §1

Sequence of Human recombinant MMP3 (P08254 100-477): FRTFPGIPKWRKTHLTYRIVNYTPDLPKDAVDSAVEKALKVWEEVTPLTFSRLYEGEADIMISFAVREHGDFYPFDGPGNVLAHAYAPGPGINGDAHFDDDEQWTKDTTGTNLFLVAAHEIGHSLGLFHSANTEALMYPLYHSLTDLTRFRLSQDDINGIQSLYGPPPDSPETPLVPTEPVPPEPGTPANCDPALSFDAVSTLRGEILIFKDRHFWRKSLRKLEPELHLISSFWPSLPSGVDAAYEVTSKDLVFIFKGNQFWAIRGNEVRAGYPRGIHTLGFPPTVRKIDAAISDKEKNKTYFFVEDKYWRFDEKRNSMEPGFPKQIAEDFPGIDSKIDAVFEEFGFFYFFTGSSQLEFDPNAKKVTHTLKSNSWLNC
Sequence of Human recombinant MMP9 (P14780 94-707): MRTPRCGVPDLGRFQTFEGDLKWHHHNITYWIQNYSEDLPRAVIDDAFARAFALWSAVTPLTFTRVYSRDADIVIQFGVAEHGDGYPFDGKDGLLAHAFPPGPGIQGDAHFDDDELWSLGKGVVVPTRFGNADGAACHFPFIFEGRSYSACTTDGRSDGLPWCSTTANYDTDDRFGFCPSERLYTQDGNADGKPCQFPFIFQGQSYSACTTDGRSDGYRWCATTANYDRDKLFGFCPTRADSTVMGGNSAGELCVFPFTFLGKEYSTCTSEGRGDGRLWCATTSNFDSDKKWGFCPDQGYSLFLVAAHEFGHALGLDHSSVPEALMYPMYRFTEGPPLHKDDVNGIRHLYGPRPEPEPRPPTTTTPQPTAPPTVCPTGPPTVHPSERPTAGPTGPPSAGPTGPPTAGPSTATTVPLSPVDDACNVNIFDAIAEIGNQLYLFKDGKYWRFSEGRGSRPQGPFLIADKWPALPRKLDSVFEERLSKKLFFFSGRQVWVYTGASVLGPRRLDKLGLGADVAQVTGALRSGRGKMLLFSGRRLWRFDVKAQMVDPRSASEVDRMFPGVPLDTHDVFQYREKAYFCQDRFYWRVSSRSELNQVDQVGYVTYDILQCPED

CC1c2ccc([N+](=O)[O-])c(O)c2C(=O)C2=C(O)C3(O)C(=O)C(C(N)=O)=C(O)C(N(C)C)C3C(O)C21 (centres unmarked) [Compound 1, 9-nitro-6-deoxy-5-hydroxytetracycline H2SO4]
Surviving Number (MAT LyLu tumor; 14 days post tumor implantation): 8
Surviving Number (MAT LyLu tumor; 17 days post tumor implantation): 8
Surviving Number (MAT LyLu tumor; 24 days post tumor implantation): 8
Surviving Number (MAT LyLu tumor; 27 days post tumor implantation): 8
Surviving Number (MAT LyLu tumor; 28 days post tumor implantation): 8
Surviving Number (MAT LyLu tumor; 29 days post tumor implantation): 6
Surviving Number (MAT LyLu tumor; 30 days post tumor implantation): 4
Surviving Number (MAT LyLu tumor; 34 days post tumor implantation): 4
Surviving Number (MAT LyLu tumor; 42 days post tumor implantation): 4
surviving number after tumor implantation (in words) (MAT LyLu tumor; compared to the control group): marked increase in surviving number
body weight changes [1]: indistinguishable body weight changes
IC50 (Human recombinant MMP1): 267 µM
IC50 (MMP2 (Gelatinase A)): > 700 µM
IC50 (Human recombinant MMP3): 258 µM
IC50 (Human recombinant MMP7): 815 µM
IC50 (Human recombinant MMP9): 43 µM
IC50 (Human recombinant MMP14): 86 µM
percent inhibition, ARK [2]: 9% and 13%
percent inhibition, ARP-1 ([3]; 1 ug/mL): +9%
percent inhibition, ARP-1 ([3]; 10 ug/mL): +13%
percent inhibition, ARP-1 ([3]; 25 ug/mL): 1%
percent inhibition, C8161 (Melanoma) [4]: 35^B percent and 56^B percent
percent inhibition, MDA-MB-231 (Breast) [5]: 20^B percent and 25^B percent
percent inhibition, PC-3 ML (Prostrate) [6]: 47^B percent and 24^B percent
percent inhibition, RPMI-8226 (Multiple Myeloma) ([7]; 1 ug/mL): 20% and 21^B percent
percent inhibition, RPMI-8226 (Multiple Myeloma) ([7]; 25 ug/mL): 15% and 29^B percent
